This experiment has as its system mice. Nature of the experiment: Neuropharmacological Assay (SmartCube): automated behavioral signature of compound-treated mice compared with a database of reference drug classes. Particulars: for minimal effective dose: Mus musculus, ip, read-out: MED; for minimal effective dose / MED: minimal effective dose: dose having 45% or more total activity in SmartCube, i.p., if only one dose was tested, that dose is shown; for AD / AG / AN / AP / AX / CE / HL / MS / PS / SH / UK: SmartCube probability class, 3.0 mg/kg dose, i.p. 15 min before the behavioral test. In kind it is in vivo. In a few lines:
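i.p. dosing 15 min pre-test (NMP/PEG/propylene glycol vehicle); 3 doses, 3.0 mg/kg reported. Output = class-match probability per behavioural effect. Potency runs 0.3, 1, 3, 10 mpk (range adjusted as needed); MED = dose with ≥45% total activity.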

Structures can show the parent of a compound that is named as a salt.

As for `N#Cc1scc2c1CC(N)CC2` (single isomer, unassigned) [Compound 312, 6-amino-4,5,6,7-tetrahydro-2-benzothiophene-1-carbonitrile hydrochloride], the minimal effective dose is 3 mg/kg, the AD entry was “ND (^ <4%)”, the AG result is “ND (^ <4%)” and the AN result was “ND (^ <4%)”. Moreover, the AP result is on record as “ND (^ <4%)”, the AX result is listed as “ND (^ <4%)”, the CE entry is given as “ND (^ <4%)” and the HL entry is recorded as “ND (^ <4%)”. Further, the MS entry is “ND (^ <4%)”, the PS entry is on record as “ND (^ <4%)” and the SH result is on record as “ND (^ <4%)”. Moreover, the UK entry (hydrochloride, 3 mg/kg) is “+++ (≥49%)”.

Turning to `N#Cc1scc2c1CC(N)CC2` (single isomer, unassigned) [Compound 313, 6-amino-4,5,6,7-tetrahydro-2-benzothiophene-1-carbonitrile hydrochloride], the AD entry is “ND (^ <4%)”, the AG entry is on record as “ND (^ <4%)”, the AN result is recorded as “ND (^ <4%)” and the AP result is “ND (^ <4%)”. The AX result is “ND (^ <4%)”, the CE result was “ND (^ <4%)”, the HL entry is recorded as “ND (^ <4%)” and the MS result is recorded as “ND (^ <4%)”. In addition, the PS result is recorded as “ND (^ <4%)” and the SH result was “ND (^ <4%)”. Besides, the UK result (hydrochloride, 3 mg/kg) was “+ (≥4%)”. Further, the MED (hydrochloride) is more than 3 mpk.

`CNC1Cc2scc(C(F)(F)F)c2C1` (single isomer, unassigned) [Compound 314, N-methyl-3-(trifluoromethyl)-5,6-dihydro-4H-cyclopenta[b]thiophen-5-amine hydrochloride]: the minimal effective dose is more than 3 mg/kg, the AD result is “ND (^ <4%)”, the AG entry was “ND (^ <4%)” and the AN entry is listed as “ND (^ <4%)”. Besides, the CE result was “ND (^ <4%)”, the HL entry is reported as “ND (^ <4%)”, the MS entry was “ND (^ <4%)” and the PS entry is recorded as “ND (^ <4%)”. The SH entry is “ND (^ <4%)”. For the setting “hydrochloride, 3 mg/kg”, the AP result is “ND (^ <4%)”, the AX entry is “ND (^ <4%)” and the UK entry is given as “+ (≥4%)”.

Take `CNC1Cc2scc(C(F)(F)F)c2C1` (single isomer, unassigned) [Compound 315, N-methyl-3-(trifluoromethyl)-5,6-dihydro-4H-cyclopenta[b]thiophen-5-amine hydrochloride]: the AD entry was “ND (^ <4%)”, the AG result is “ND (^ <4%)”, the AN entry was “ND (^ <4%)” and the CE entry is listed as “ND (^ <4%)”. Besides, the HL result is “ND (^ <4%)”, the MS entry is recorded as “ND (^ <4%)”, the PS result is recorded as “ND (^ <4%)” and the SH result was “ND (^ <4%)”. Besides, where the note is “hydrochloride, 3 mg/kg”, the AP entry is given as “+ (≥4%)”, the AX result is reported as “++++ (≥74%)” and the UK entry is on record as “ND (^ <4%)”. The MED (hydrochloride) came to 3 mpk.

As for `CNC1Cc2scc(C)c2C1` (single isomer, unassigned) [Compound 316, N, 3-dimethyl-5,6-dihydro-4H-cyclopenta[b]thiophen-5-amine hydrochloride], the minimal effective dose came out at 3 mg/kg, the AD result was “ND (^ <4%)”, the AG entry is “ND (^ <4%)” and the AN entry is reported as “ND (^ <4%)”. The HL result is on record as “ND (^ <4%)”, the MS result is on record as “ND (^ <4%)”, the PS entry is reported as “ND (^ <4%)” and the SH result is on record as “ND (^ <4%)”. The UK result was “ND (^ <4%)”. Besides, for the setting “hydrochloride, 3 mg/kg”, the AP entry is recorded as “++++ (≥74%)”, the AX entry is “ND (^ <4%)” and the CE result is reported as “ND (^ <4%)”.

On to `CNC1Cc2scc(C)c2C1` (single isomer, unassigned) [Compound 317, N, 3-dimethyl-5,6-dihydro-4H-cyclopenta[b]thiophen-5-amine hydrochloride], for which the AD entry is “ND (^ <4%)”, the AG entry is “ND (^ <4%)”, the AN result is “ND (^ <4%)” and the HL entry is recorded as “ND (^ <4%)”. For the same compound, the MS result is listed as “ND (^ <4%)”, the PS result is given as “ND (^ <4%)”, the SH entry is listed as “ND (^ <4%)” and the UK entry was “ND (^ <4%)”. This compound registered an MED of 3 mpk. Also, under “hydrochloride, 3 mg/kg”, the AP result is on record as “+ (≥4%)”, the AX entry is recorded as “+++ (≥49%)” and the CE result is “+ (≥4%)”.

In the case of `CNC1Cc2cc(C)sc2C1` (single isomer, unassigned) [Compound 318, N, 2-dimethyl-5,6-dihydro-4H-cyclopenta[b]thiophen-5-amine hydrochloride], the minimal effective dose is 3 mg/kg, the AD result is given as “ND (^ <4%)”, the AG entry is recorded as “ND (^ <4%)” and the AN result is reported as “ND (^ <4%)”. The HL entry is on record as “ND (^ <4%)”, the MS result is given as “ND (^ <4%)”, the PS entry was “ND (^ <4%)” and the SH entry is “ND (^ <4%)”. Further, under “hydrochloride, 3 mg/kg”, the AP entry is listed as “+ (≥4%)”, the AX entry is recorded as “+ (≥4%)”, the CE entry is given as “ND (^ <4%)” and the UK result is “+++ (≥49%)”.

For the compound `CNC1Cc2cc(C)sc2C1` (single isomer, unassigned) [Compound 319, N, 2-dimethyl-5,6-dihydro-4H-cyclopenta[b]thiophen-5-amine hydrochloride], the AD entry is “ND (^ <4%)”, the AG entry is listed as “ND (^ <4%)”, the AN entry is “ND (^ <4%)” and the HL entry is on record as “ND (^ <4%)”. Also, the MS result is given as “ND (^ <4%)”, the PS entry was “ND (^ <4%)”, the SH result was “ND (^ <4%)” and the MED was found to be 3 mpk. For the setting “hydrochloride, 3 mg/kg”, the AP entry is “ND (^ <4%)”, the AX result is recorded as “++++ (≥74%)”, the CE entry is “+ (≥4%)” and the UK entry is reported as “ND (^ <4%)”.

For `CNC1Cc2scc(C3CC3)c2C1` (single isomer, unassigned) [Compound 320, 3-cyclopropyl-N-methyl-5,6-dihydro-4H-cyclopenta[b]thiophen-5-amine hydrochloride], the minimal effective dose was more than 3 mg/kg, the AD result is recorded as “ND (^ <4%)”, the AG entry is recorded as “ND (^ <4%)” and the AN result is recorded as “ND (^ <4%)”. Moreover, the CE entry is on record as “ND (^ <4%)”, the HL entry is reported as “ND (^ <4%)”, the MS result is “ND (^ <4%)” and the PS entry is recorded as “ND (^ <4%)”. Further, the SH result is reported as “ND (^ <4%)”. Under “hydrochloride, 3 mg/kg”, the AP entry is reported as “ND (^ <4%)”, the AX result is on record as “ND (^ <4%)” and the UK result is reported as “++ (≥24%)”.

In the case of `CNC1Cc2scc(C3CC3)c2C1` (single isomer, unassigned) [Compound 321, 3-cyclopropyl-N-methyl-5,6-dihydro-4H-cyclopenta[b]thiophen-5-amine hydrochloride], the AD result was “ND (^ <4%)”, the AG entry was “ND (^ <4%)”, the AN result is “ND (^ <4%)” and the CE entry was “ND (^ <4%)”. The HL entry was “ND (^ <4%)”, the MS entry is “ND (^ <4%)”, the PS result is “ND (^ <4%)” and the SH entry is listed as “ND (^ <4%)”. Under “hydrochloride, 3 mg/kg”, the AP result is given as “+ (≥4%)”, the AX entry is on record as “++++ (≥74%)” and the UK result was “ND (^ <4%)”. Also, the MED (hydrochloride) came to 3 mpk.

In the case of `CNC1COc2c(C3CC3)csc2C1` (single isomer, unassigned) [Compound 324, 3-cyclopropyl-N-methyl-6,7-dihydro-5H-thieno[3,2-b]pyran-6-amine hydrochloride], the minimal effective dose amounted to 3 mg/kg, the AG result was “ND (^ <4%)”, the AN result is “ND (^ <4%)” and the AP result is on record as “ND (^ <4%)”. Moreover, the AX result was “ND (^ <4%)”, the CE result is recorded as “ND (^ <4%)”, the HL entry is “ND (^ <4%)” and the MS result is “ND (^ <4%)”. The PS entry is reported as “ND (^ <4%)” and the SH result is listed as “ND (^ <4%)”. For the same compound, where the note is “hydrochloride, 3 mg/kg”, the AD entry was “+ (≥4%)” and the UK entry is on record as “ND (^ <4%)”.

For `CNC1COc2c(C3CC3)csc2C1` (single isomer, unassigned) [Compound 325, 3-cyclopropyl-N-methyl-6,7-dihydro-5H-thieno[3,2-b]pyran-6-amine hydrochloride], the AG entry is “ND (^ <4%)”, the AN result was “ND (^ <4%)”, the AP entry is “ND (^ <4%)” and the AX result is given as “ND (^ <4%)”. In addition, the CE result is recorded as “ND (^ <4%)”, the HL entry was “ND (^ <4%)”, the MS entry is “ND (^ <4%)” and the PS entry is listed as “ND (^ <4%)”. Further, the SH result is recorded as “ND (^ <4%)” and the MED was 3 mpk. Also, where the note is “hydrochloride, 3 mg/kg”, the AD result is “ND (^ <4%)” and the UK entry is recorded as “++ (≥24%)”.

The values are drawn from US20260274814A1, “THIENYL COMPOUNDS FOR THE TREATMENT OF A CENTRAL NERVOUS SYSTEM DISEASE OR DISORDER” (Coreterra Therapeutics, Inc., priority 2023, published 2026).
